Measured values from patent US9296741B2, “Bromodomain inhibitors” (priority 2012, dated 2016).

Key:
[1] = test system: breast cancer cell line MX-1; assay: MX-1 cell line proliferation assay; assay type: cell-based, human; conditions: Homo sapiens, MX1, 72 h; MX-1 cells, 3-day proliferation, Cell Titer Glo; read-out: Cellular proliferation: EC50
[2] = target: human BRD4 second bromodomain (BDII_E352-M457) (Homo sapiens (Human), UniProt O60885); assay: TR-FRET bromodomain binding assay, BRD4 second bromodomain
[3] = target: human BRD4 first bromodomain (BDI_K57-E168) (Homo sapiens (Human), UniProt O60885); assay: TR-FRET bromodomain binding assay, BRD4 first bromodomain
[4] = Rat liver microsome stability assay; assay type: in vitro ADME; conditions: rat liver microsomes (male Sprague-Dawley), 0.5 μM test compound, pH 7.4, 37° C.; for half-life at 0.5 μM: 0.25 mg/mL microsomal protein, read-out: Stability in rat liver microsomes (t1/2 in minutes)
[5] = Human liver microsome stability assay; assay type: in vitro ADME; conditions: both sexes, human, microsomes, pH 7.4

SMILES	EC50 [1] [µM]	Ki [2] [µM]	Ki [3] [µM]	half-life at 0.5 μM [4] [min]	half-life at 0.5 μM [5] [min]	Stability in rat liver microsomes (t1/2 in minutes) ([4]; […] microsomal protein) [min]
Cn1cc(-c2cc(N)ccc2Oc2ccccc2)c2cc[nH]c2c1=O [Example 3, 4-(5-amino-2-phenoxyphenyl)-6-methyl-1,6-dihydro-7H-pyrrolo[2,3-c]pyridin-7-one]	0.185	–	–	–	–	–
Cn1cc(-c2cc(Cn3cccn3)ccc2Oc2ccccc2)c2cc[nH]c2c1=O [Example 30, 6-methyl-4-[2-phenoxy-5-(1H-pyrazol-1-ylmethyl)phenyl]-1,6-dihydro-7H-pyrrolo[2,3-c]pyridin-7-one]	0.562	–	–	–	–	–
Cn1cc(-c2cc(NC(=O)CC(F)(F)F)ccc2Oc2ccc(F)cc2F)c2cc[nH]c2c1=O [Example 38, N-[4-(2,4-difluorophenoxy)-3-(6-methyl-7-oxo-6,7-dihydro-1H-pyrrolo[2,3-c]pyridin-4-yl)phenyl]-3,3,3-trifluoropropanamide]	–	0.257	0.148	25	16.8	–
Cn1cc(-c2cc(NC(=O)C(C)(C)C)ccc2Oc2ccc(F)cc2F)c2cc[nH]c2c1=O [Example 39, N-[4-(2,4-difluorophenoxy)-3-(6-methyl-7-oxo-6,7-dihydro-1H-pyrrolo[2,3-c]pyridin-4-yl)phenyl]-2,2-dimethylpropanamide]	–	0.124	0.112	8	9.7	–
Cn1cc(-c2cc(C(=O)N3CCS(=O)(=O)CC3)ccc2Oc2ccc(F)cc2F)c2cc[nH]c2c1=O [Example 52, 4-{2-(2,4-difluorophenoxy)-5-[(1,1-dioxidothiomorpholin-4-yl)carbonyl]phenyl}-6-methyl-1,6-dihydro-7H-pyrrolo[2,3-c]pyridin-7-one]	0.309	–	–	–	–	–
Cn1cc(-c2cc(C(=O)Nc3ncccn3)ccc2Oc2ccc(F)cc2F)c2cc[nH]c2c1=O [Example 116, 4-(2,4-difluorophenoxy)-3-(6-methyl-7-oxo-6,7-dihydro-1H-pyrrolo[2,3-c]pyridin-4-yl)-N-(pyrimidin-2-yl)benzamide]	–	0.0891	0.105	–	–	–
COc1ccc(NC(=O)c2ccc(Oc3ccc(F)cc3F)c(-c3cn(C)c(=O)c4[nH]ccc34)c2)c(OC)n1 [Example 117, 4-(2,4-difluorophenoxy)-N-(2,6-dimethoxypyridin-3-yl)-3-(6-methyl-7-oxo-6,7-dihydro-1H-pyrrolo[2,3-c]pyridin-4-yl)benzamide]	–	0.486	2.3	36	34	–
COc1ccc2[nH]cc(CCNC(=O)c3ccc(Oc4ccc(F)cc4F)c(-c4cn(C)c(=O)c5[nH]ccc45)c3)c2c1 [Example 124, 4-(2,4-difluorophenoxy)-N-[2-(5-methoxy-1H-indol-3-yl)ethyl]-3-(6-methyl-7-oxo-6,7-dihydro-1H-pyrrolo[2,3-c]pyridin-4-yl)benzamide]	–	0.169	0.32	4	2	–
COc1cc(CNC(=O)c2ccc(Oc3ccc(F)cc3F)c(-c3cn(C)c(=O)c4[nH]ccc34)c2)cc(OC)c1OC [Example 130, 4-(2,4-difluorophenoxy)-3-(6-methyl-7-oxo-6,7-dihydro-1H-pyrrolo[2,3-c]pyridin-4-yl)-N-(3,4,5-trimethoxybenzyl)benzamide]	–	0.174	0.183	–	–	–
Cn1cc(-c2cc(C(=O)NCCc3ccc4c(c3)OCO4)ccc2Oc2ccc(F)cc2F)c2cc[nH]c2c1=O [Example 132, N-[2-(1,3-benzodioxol-5-yl)ethyl]-4-(2,4-difluorophenoxy)-3-(6-methyl-7-oxo-6,7-dihydro-1 H-pyrrolo[2,3-c]pyridin-4-yl)benzamide]	–	0.344	0.238	–	–	–
Cn1cc(-c2cc(C(=O)NC3CCN(C(=O)OC(C)(C)C)CC3)ccc2Oc2ccc(F)cc2F)c2cc[nH]c2c1=O [Example 136, tert-butyl 4-{[4-(2,4-difluorophenoxy)-3-(6-methyl-7-oxo-6,7-dihydro-1H-pyrrolo[2,3-c]pyridin-4-yl)benzoyl]amino}piperidine-1-carboxylate]	–	0.295	0.234	–	–	–
Cn1cc(-c2cc(S(C)(=O)=O)ccc2Oc2cccc3c2CCC3=O)c2cc[nH]c2c1=O [Example 175, 6-methyl-4-{5-(methylsulfonyl)-2-[(1-oxo-2,3-dihydro-1H-inden-4-yl)oxy]phenyl}-1,6-dihydro-7H-pyrrolo[2,3-c]pyridin-7-one]	–	0.0178	0.0258	–	–	–
Cn1cc(-c2cc(S(C)(=O)=O)ccc2Oc2ccc3c(c2)CCC3=O)c2cc[nH]c2c1=O [Example 181, 6-methyl-4-{5-(methylsulfonyl)-2-[(1-oxo-2,3-dihydro-1H-inden-5-yl)oxy]phenyl}-1,6-dihydro-7H-pyrrolo[2,3-c]pyridin-7-one]	–	0.0224	0.0305	–	–	–
Cn1cc(-c2cc(S(C)(=O)=O)ccc2Oc2ccc3c(c2)C(=O)CC3)c2cc[nH]c2c1=O [Example 182, 6-methyl-4-{5-(methylsulfonyl)-2-[(3-oxo-2,3-dihydro-1H-inden-5-yl)oxy]phenyl}-1,6-dihydro-7H-pyrrolo[2,3-c]pyridin-7-one]	–	0.0097	0.019	–	–	–
Cn1cc(-c2cc(S(C)(=O)=O)ccc2Oc2ccccc2C#N)c2cc[nH]c2c1=O [Example 183, 2-[2-(6-methyl-7-oxo-6,7-dihydro-1H-pyrrolo[2,3-c]pyridin-4-yl)-4-(methylsulfonyl)phenoxy]benzonitrile]	–	0.0198	0.0412	–	–	–
Cn1cc(-c2cc(S(C)(=O)=O)ccc2Oc2cccc3ccccc23)c2cc[nH]c2c1=O [Example 185, 6-methyl-4-[5-(methylsulfonyl)-2-(naphthalen-1-yloxy)phenyl]-1,6-dihydro-7H-pyrrolo[2,3-c]pyridin-7-one]	–	0.0122	0.0345	–	–	–
Cn1cc(-c2cc(S(C)(=O)=O)ccc2Oc2ccc(Cl)c(F)c2)c2cc[nH]c2c1=O [Example 189, 4-[2-(4-chloro-3-fluorophenoxy)-5-(methylsulfonyl)phenyl]-6-methyl-1,6-dihydro-7H-pyrrolo[2,3-c]pyridin-7-one]	–	0.023	0.0304	55	34	–
Cn1cc(-c2ccccc2Cc2ccccc2)c2cc[nH]c2c1=O [Example 195, 4-(2-benzylphenyl)-6-methyl-1,6-dihydro-7H-pyrrolo[2,3-c]pyridin-7-one]	–	1.02	5.5	–	13	1
Cc1cccc(OCC2CC2)c1-c1cn(C)c(=O)c2[nH]ccc12 [Example 247, 4-[2-(cyclopropylmethoxy)-6-methylphenyl]-6-methyl-1,6-dihydro-7H-pyrrolo[2,3-c]pyridin-7-one]	–	3	1.1	–	–	–
Cc1c(NS(C)(=O)=O)ccc(OCC2CC2)c1-c1cn(C)c(=O)c2[nH]ccc12 [Example 262, N-[4-(cyclopropylmethoxy)-2-methyl-3-(6-methyl-7-oxo-6,7-dihydro-1H-pyrrolo[2,3-c]pyridin-4-yl)phenyl]methanesulfonamide]	–	0.489	0.125	25	> 120	–
Cn1cc(-c2cc(C(F)(F)F)ccc2Oc2ccc(F)cc2F)c2cc[nH]c2c1=O [Example 275, 4-[2-(2,4-difluorophenoxy)-5-(trifluoromethyl)phenyl]-6-methyl-1,6-dihydro-7H-pyrrolo[2,3-c]pyridin-7-one]	–	1.13	0.526	–	–	–
